The text below walks through data of patent US10160771B2, “Hepatitis C virus inhibitors and uses thereof in preparation of drugs” (priority 2014, dated 2018).

A short description of data set [1]: Cell Titer-fluor cell activity assay in HCV-1b replicon cells (CC50). The class given is cell-based. The protocol: The EC50 and CC50 values of anti-HCV compounds were determined by HCV genotype 1a (HCV-1a) and 1B (HCV-1b) stable transfer replication (replicon) cells. The source of genotype 1a replicon is H77 clones containing K1691R, K2040R and S2204I adaptive mutations. The source of genotype 1b replicon is Con1 clones containing E1202G, T1280I and K1846T adaptive mutations.
HCV Replicon Cell Lines: HCV-1a and HCV-1b Cells
The compound powder was dissolved in 100% DMSO. Then the compound was diluted 5 times with 6 points, and added into the cell plate with Echo liquid handler. Ensure the final concentration of DMSO was 0.5%. Each compound was tested in double holes. Maximum initial concentration was 100, 10 or 1 nM, 5 times dilution, 6 points.
b) Cell Culture (HCV-1a or HCV-1b Replicon Cell):
1) absorbing the culture supernatant of the cell culture and washing the cells with 10 mL PBS.
2) adding preheated pancreatin to the washed cell culture flasks, rotating culture bottle to make the bottom of the culture bottle uniformly covered by pancreatin, then placed into 37° C., 5% CO2 incubator to digest.
3) suspending cells in each T150 culture flask with 10-15 mL culture medium, absorbing 0.1 mL liquid and diluting 2 times by trypan blue solution as counted.
4) diluting cells to 8×10^4/mL with the culture medium, adding the diluted cells into the compound-containing 96-well plate (Greiner, Cat.#655090) (100 μL/well, 8000 cells/well) with automatic liquid separator (Thermo Scientific). Then place into a 37° C., 5% CO2 incubator for 3 days. Cell control well: no compound, only containing 0.5% DMSO.
5) adding chemiluminescent substrate Cell Titer-fluor to the cell well, after incubation for 30 minutes, detecting the signal by chemiluminescence detection system Envison (Ex at 405 nm and read at 515 nm). The effect of the compounds on the activity of HCV replicon cells was analyzed according to the luminescence data, which was used to calculate the CC50 values.
The EC50 or CC50 values were obtained by nonlinear fitting analysis on inhibition percentage (inh %) data with GraphPad Prism software.
For orientation: A replicon is a self-replicating genome or part of one, used to study replication in cells.

The subject of data set [2] is HCV genotype 1a (HCV-1a) replicon cells. Put plainly: HCV genotype 1a replicon luciferase assay (EC50). Type of data set: cell-based, hepatitis C virus genotype 1a (H77 clone). As to conditions: 3 days, luciferase (Bright-Glo). The essentials:
(§1)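 Compounds were dispensed as 5-fold, 6-point series (highest 100, 10 or 1 nM; 0.5% DMSO) in duplicate. Replicon cells expressing luciferase (H77-derived for 1a, Con1-derived for 1b) were added at 8000 per well and grown 3 days. Luciferase activity was then measured and EC50 fitted.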

Data set [3] relates to HCV genotype 1b (HCV-1b) replicon cells. Nature of the data set: HCV genotype 1b replicon luciferase assay (EC50). The class given is cell-based, hepatitis C virus genotype 1b (Con1 clone). As to conditions: Hepatitis C virus, 72 h, 3 days, luciferase (Bright-Glo). The procedure, abridged:
as §1

As usually defined, the CC50 is the concentration giving 50% cytotoxicity. High values mean better tolerance by the cells, low ones harm at low concentration. As a reminder, the EC50 is the concentration that produces a half-maximal response.

On to `COC(=O)N[C@H](C(=O)N1CCC[C@H]1c1ccc(-c2ccc(-c3ccc(-c4cnc([C@@H]5CCCN5C(=O)[C@@H](NC(=O)OC)C5CCCCC5)[nH]4)cc3)cc2)[nH]1)C(C)C` [AG_101], for which the CC50 at 3 days in data set [1] is more than 1 nM. The EC50 in data set [2] (Hepatitis C virus, 72 h) is 1 to 10 nM; in data set [3] it was 0.001 to 0.1 nM.
On to `COC(=O)N[C@H](C(=O)N1CCCC1c1ccc(-c2ccc(-c3ccc(-c4cnc([C@@H]5CCCN5C(=O)[C@@H](NC(=O)OC)C5CCOC5)[nH]4)cc3)cc2)[nH]1)C(C)C` (stereo partly drawn) [AG_054], for which, in data set [1], the cytotoxic concentration (CC50) at 3 days is more than 10 nM. For the same compound, the EC50 in data set [2] (Hepatitis C virus, 72 h) lay within 0.101 to 1 nM; in data set [3] it was 0.001 to 0.1 nM.
With `COC(=O)N[C@H](C(=O)N1CCC[C@H]1c1ncc(-c2ccc(-c3ccc(-c4cnc(C5C6CCC(C6)[C@@H]5C(=O)NCc5ccco5)[nH]4)cc3)cc2)[nH]1)[C@@H](C)OC` (stereo partly drawn) [AA_222_A], the 50% cytotoxic concentration (CC50) at 3 days in data set [1] is more than 1 nM. Also, the 50% effective concentration (EC50) in data set [2] (Hepatitis C virus, 72 h) was 10 to 100 nM; in data set [3], 0.001 to 0.1 nM.
The like results for `COC(=O)N[C@H](C(=O)N1CCC[C@H]1c1ncc(-c2ccc(-c3ccc(-c4cnc([C@@H]5C6CCC(C6)[C@H]5C(=O)NC(CO)c5ccccn5)[nH]4)cc3)cc2)[nH]1)C(C)C` (stereo partly drawn) [AA_243_B] were, in that order, more than 1 nM, 0.101 to 1 nM and 0.001 to 0.1 nM.
`COC(=O)N[C@H](C(=O)N1C[C@@H](OC)C[C@H]1c1ncc(-c2ccc(-c3ccc(-c4cnc([C@H]5C6CCC(C6)[C@@H]5C(=O)NCc5cccnc5)[nH]4)cc3)cc2)[nH]1)C(C)C` (stereo partly drawn) [AA_230_B] yielded a 50% cytotoxic concentration (CC50) at 3 days in data set [1] of more than 1 nM. Also, the EC50 in data set [2] (Hepatitis C virus, 72 h) lay in the range of 1 to 10 nM; in data set [3], 0.001 to 0.1 nM.
`COC(=O)N[C@H](C(=O)N1CCC[C@H]1c1ncc(-c2ccc(-c3ccc(-c4cnc(C5C6CCC(C6)[C@H]5C(=O)N[C@H](c5cccnc5)C(C)C)[nH]4)cc3)cc2)[nH]1)[C@@H](C)OC` (stereo partly drawn) [AA_267_B] registered a CC50 at 3 days in data set [1] of more than 1 nM. Moreover, the figures for the concentration for a half-maximal effect (EC50) in data set [2] and in data set [3] were 1 to 10 nM and 0.101 to 1 nM, respectively.
`COC(=O)N[C@H](C(=O)N1CCC[C@H]1c1ncc(-c2ccc(-c3ccc(-c4cnc(C5C6CCC(C6)[C@@H]5C(=O)NCc5cccc(N)c5)[nH]4)cc3)cc2)[nH]1)[C@@H](C)OC` (stereo partly drawn) [AA_226]: the half-maximal cytotoxic concentration (CC50) at 3 days in data set [1] was more than 1 nM. The 50% effective concentration (EC50) was in the range of 10 to 100 nM in data set [2] (Hepatitis C virus, 72 h) and 0.001 to 0.1 nM in data set [3].
Consider `COC(=O)N[C@H](C(=O)N1CCC[C@H]1c1ncc(-c2ccc(-c3ccc(-c4cnc([C@@H]5C6CCC(C6)[C@H]5C(=O)NCc5cccnc5)[nH]4)cc3)cc2C)[nH]1)C(C)C` (stereo partly drawn) [AA_211_B], for which the CC50 at 3 days in data set [1] is more than 1 nM. The EC50 in data set [2] (Hepatitis C virus, 72 h) is 1 to 10 nM; in data set [3], 0.001 to 0.1 nM.
In data set [1], `COC(=O)NC(C(=O)N1CCC[C@H]1c1ncc(-c2ccc(-c3ccc(-c4cnc(C5C6CCC(C6)[C@@H]5C(=O)NCc5cccnc5)[nH]4)cc3)cc2)[nH]1)C1CCOCC1` (stereo partly drawn) [AA_191] registered a CC50 at 3 days of more than 1 nM. Moreover, the 50% effective concentration (EC50) was 1 to 10 nM in data set [2] (Hepatitis C virus, 72 h) and 0.101 to 1 nM in data set [3].
Consider `COC(=O)N[C@H](C(=O)N1CCC[C@H]1c1ncc(-c2ccc(-c3ccc(-c4cnc([C@@H]5C6CCC(C6)[C@H]5C(=O)NCc5ccccc5)[nH]4)cc3)cc2)[nH]1)C(C)C` (stereo partly drawn) [AA_207_B], for which, in data set [1], the CC50 at 3 days is more than 1 nM. For the same compound, the concentration giving a half-maximal response (EC50) in data set [2] (Hepatitis C virus, 72 h) was in the range of 10 to 100 nM; in data set [3], 0.001 to 0.1 nM.
Compound `COC(=O)N[C@H](C(=O)N1CCC[C@H]1c1ncc(-c2ccc(-c3ccc(-c4cnc(C5C6CCC(C6)[C@H]5C(=O)NCc5cccnc5C(F)(F)F)[nH]4)cc3)cc2)[nH]1)[C@@H](C)OC` (stereo partly drawn) [AA_255_B] registered a CC50 at 3 days in data set [1] of more than 1 nM. Besides, the concentration for a half-maximal effect (EC50) lay in the range of 10 to 100 nM in data set [2] (Hepatitis C virus, 72 h) and 0.001 to 0.1 nM in data set [3].
The compound `COC(=O)N[C@H](C(=O)N1CCC[C@H]1c1ncc(-c2ccc(-c3ccc(-c4cnc([C@@H]5C6CCC(C6)[C@H]5C(=O)NC(C)c5cccnc5)[nH]4)cc3)cc2)[nH]1)C(C)C` (stereo partly drawn) [AA_204_B] showed a CC50 at 3 days in data set [1] of more than 1 nM. Also, the half-maximal effective concentration (EC50) lay within 1 to 10 nM in data set [2] (Hepatitis C virus, 72 h) and 0.001 to 0.1 nM in data set [3].
Turning to `COC(=O)N[C@H](C(=O)N1CCC[C@H]1c1ncc(-c2ccc(-c3ccc(-c4cnc(C5C6CCC(C6)[C@@H]5C(=O)NCc5cnccn5)[nH]4)cc3)cc2)[nH]1)[C@@H](C)OC` (stereo partly drawn) [AA_268_A], the CC50 at 3 days in data set [1] was more than 1 nM. Also, the EC50 lay within 0.101 to 1 nM in data set [2] (Hepatitis C virus, 72 h) and 0.001 to 0.1 nM in data set [3].
For the compound `COC(=O)N[C@H](C(=O)N1CCC[C@H]1c1ncc(-c2ccc(-c3ccc(-c4cnc([C@H]5C6CCC(C6)[C@@H]5C(=O)NCc5cccs5)[nH]4)cc3)cc2)[nH]1)C(C)C` (stereo partly drawn) [AA_196_A], in data set [1], the CC50 at 3 days is more than 1 nM. Besides, the EC50 in data set [2] (Hepatitis C virus, 72 h) lay within 1 to 10 nM; in data set [3], 0.001 to 0.1 nM.
Take `COC(=O)N[C@@H](CO)C(=O)N1CCC[C@H]1c1ncc(-c2ccc(-c3ccc(-c4ccc([C@@H]5CCCN5C(=O)[C@@H](NC(=O)OC)C(C)OC)[nH]4)cc3)cc2)[nH]1` (stereo partly drawn) [AG_119]: the 50% cytotoxic concentration (CC50) at 3 days in data set [1] was more than 1 nM. The EC50 was 0.101 to 1 nM in data set [2] (Hepatitis C virus, 72 h) and 0.001 to 0.1 nM in data set [3].
In turn, `COC(=O)N[C@H](C(=O)N1CCC[C@H]1c1ncc(-c2ccc(-c3ccc(-c4cnc([C@H]5C6CCC(C6)[C@@H]5C(=O)NCc5cnccn5)[nH]4)cc3)cc2)[nH]1)C(C)C` (stereo partly drawn) [AA_206_A] had a cytotoxic concentration (CC50) at 3 days in data set [1] of more than 1 nM. Besides, the EC50 in data set [2] (Hepatitis C virus, 72 h) lay in the range of 0.101 to 1 nM; in data set [3] it was 0.001 to 0.1 nM.
The like results for `COC(=O)N[C@H](C(=O)N1CCC[C@H]1c1ncc(-c2ccc(-c3ccc(-c4cnc([C@H]5C6CCC(C6)[C@@H]5C(=O)NCc5ccccc5)[nH]4)cc3)cc2)[nH]1)C(C)C` (stereo partly drawn) [AA_207_A] were, in that order, more than 1 nM, 1 to 10 nM and 0.001 to 0.1 nM.
In the case of `COC(=O)N[C@H](C(=O)N1CCC[C@H]1c1ncc(-c2ccc(-c3ccc(-c4cnc(C5C6CCC(C6)[C@H]5C(=O)NC(C)c5cccnc5)[nH]4)cc3)cc2)[nH]1)[C@@H](C)OC` (stereo partly drawn) [AA_251_A], the CC50 at 3 days in data set [1] is more than 1 nM. The 50% effective concentration (EC50) in data set [2] (Hepatitis C virus, 72 h) lay in the range of 0.101 to 1 nM; in data set [3], 0.101 to 1 nM.
`COC(=O)N[C@H](C(=O)N1CCC[C@H]1c1nc2cc(-c3ccc(-c4[nH]c([C@@H]5CCCN5C(=O)[C@@H](NC(=O)OC)C(C)C)c5c4CCC5)cc3)ccc2[nH]1)C(C)C` [AG_063]: the half-maximal cytotoxic concentration (CC50) at 3 days in data set [1] was more than 1 nM. Further, the EC50 was in the range of 10 to 100 nM in data set [2] (Hepatitis C virus, 72 h) and 0.001 to 0.1 nM in data set [3].
Consider `COC(=O)N[C@H](C(=O)N1CCC[C@H]1c1[nH]c(-c2ccc(-c3ccc(-c4cnc([C@@H]5CCCCN5C(=O)[C@@H](NC(=O)OC)[C@@H](C)OC)[nH]4)cc3)cc2)c2c1CCCO2)C(C)C` [AG_121], for which the cytotoxic concentration (CC50) at 3 days in data set [1] was more than 1 nM. For the same compound, the 50% effective concentration (EC50) in data set [2] (Hepatitis C virus, 72 h) was 10 to 100 nM; in data set [3] it was 0.001 to 0.1 nM.
In data set [1], `COC(=O)N[C@H](C(=O)N1CCC[C@H]1c1ncc(-c2ccc(-c3ccc(-c4cnc([C@@H]5C6CCC(C6)[C@H]5C(=O)NCc5cnccn5)[nH]4)cc3)cc2)[nH]1)C(C)C` (stereo partly drawn) [AA_206_B] registered a cytotoxic concentration (CC50) at 3 days of more than 1 nM. The concentration giving a half-maximal response (EC50) in data set [2] (Hepatitis C virus, 72 h) is 1 to 10 nM; in data set [3], 0.001 to 0.1 nM.
On the same counts, the results for `COC(=O)N[C@H](C(=O)N1CCC[C@H]1c1ncc(-c2ccc(-c3ccc(-c4cnc([C@@H]5C6CCC(C6)[C@H]5C(=O)NCc5cccnc5OC)[nH]4)cc3)cc2)[nH]1)C(C)C` (stereo partly drawn) [AA_203_B] are more than 1 nM, 1 to 10 nM and 0.001 to 0.1 nM.
With `COC(=O)N[C@H](C(=O)N1CCC[C@H]1c1ncc(-c2ccc(-c3ccc(-c4[nH]c([C@H]5CCCN5C(=O)[C@@H](NC(=O)OC)[C@@H](C)OC)c5c4CCCC5)cc3)cc2)[nH]1)C(C)C` [AG_078_B], the half-maximal cytotoxic concentration (CC50) at 3 days in data set [1] was more than 5 nM. Moreover, the EC50 in data set [2] (Hepatitis C virus, 72 h) lay in the range of 10 to 100 nM; in data set [3], 0.101 to 1 nM.
